± gives the expanded uncertainty stated by the source.
Conditions: Liquid, Vibrating tube method

CCCCCCCCCCC [undecane]
mass density [kg/m3]
Conditions	313.15 K	323.1 K	333.02 K	342.09 K	352.93 K	362.91 K
1000 kPa	726.6 ± 0.3	719 ± 0.3	711.3 ± 0.3	703.9 ± 0.3	696.5 ± 0.3	688.8 ± 0.3
2000 kPa	–	719.8 ± 0.3	–	704.8 ± 0.3	697.4 ± 0.3	–
2001 kPa	727.3 ± 0.3	–	712.1 ± 0.3	–	–	689.9 ± 0.3
3000 kPa	–	720.6 ± 0.3	713 ± 0.3	–	–	691 ± 0.3
3001 kPa	728 ± 0.3	–	–	705.8 ± 0.3	698.4 ± 0.3	–
4000 kPa	728.7 ± 0.3	721.4 ± 0.3	713.8 ± 0.3	706.7 ± 0.3	699.4 ± 0.3	692 ± 0.3
5000 kPa	729.5 ± 0.3	–	714.7 ± 0.3	707.6 ± 0.3	700.4 ± 0.3	–
5001 kPa	–	722.2 ± 0.3	–	–	–	693.1 ± 0.3
6000 kPa	–	723 ± 0.3	715.5 ± 0.3	708.5 ± 0.3	701.4 ± 0.3	–
6001 kPa	730.2 ± 0.3	–	–	–	–	694.1 ± 0.3
7000 kPa	731 ± 0.3	723.8 ± 0.3	716.4 ± 0.3	709.4 ± 0.3	–	–
7001 kPa	–	–	–	–	702.3 ± 0.3	695.2 ± 0.3
8000 kPa	731.8 ± 0.3	724.6 ± 0.3	–	710.4 ± 0.3	703.3 ± 0.3	696.2 ± 0.3
8001 kPa	–	–	717.3 ± 0.3	–	–	–
9000 kPa	732.6 ± 0.3	725.5 ± 0.3	718.1 ± 0.3	711.2 ± 0.3	704.3 ± 0.3	697.2 ± 0.3
10000 kPa	733.4 ± 0.3	–	719 ± 0.3	712.2 ± 0.3	–	698.2 ± 0.3
10001 kPa	–	726.3 ± 0.3	–	–	705.2 ± 0.3	–
11000 kPa	734.1 ± 0.3	727.1 ± 0.3	719.9 ± 0.3	713.1 ± 0.3	706.2 ± 0.3	699.2 ± 0.3
12000 kPa	734.9 ± 0.3	727.9 ± 0.3	720.7 ± 0.3	714 ± 0.3	707.1 ± 0.3	–
12001 kPa	–	–	–	–	–	700.2 ± 0.3
13000 kPa	735.7 ± 0.3	728.7 ± 0.3	721.5 ± 0.3	714.8 ± 0.3	708 ± 0.3	701.1 ± 0.3
14000 kPa	–	729.5 ± 0.3	722.4 ± 0.3	715.7 ± 0.3	709 ± 0.4	–
14001 kPa	736.4 ± 0.3	–	–	–	–	702.1 ± 0.4
15000 kPa	737.2 ± 0.3	–	723.2 ± 0.4	716.6 ± 0.4	709.8 ± 0.4	–
15001 kPa	–	730.3 ± 0.3	–	–	–	703 ± 0.4
16000 kPa	737.9 ± 0.3	731.1 ± 0.4	724 ± 0.4	717.4 ± 0.4	710.7 ± 0.4	–
16001 kPa	–	–	–	–	–	704 ± 0.4
17000 kPa	738.7 ± 0.4	731.9 ± 0.4	724.8 ± 0.4	718.2 ± 0.4	711.6 ± 0.4	–
17001 kPa	–	–	–	–	–	704.9 ± 0.4
18000 kPa	739.4 ± 0.4	732.6 ± 0.4	725.6 ± 0.4	719.1 ± 0.4	712.5 ± 0.4	705.8 ± 0.4
19000 kPa	740 ± 0.4	733.3 ± 0.4	726.3 ± 0.4	719.9 ± 0.4	713.3 ± 0.4	–
19001 kPa	–	–	–	–	–	706.6 ± 0.4
20000 kPa	740.7 ± 0.4	734 ± 0.4	727.1 ± 0.4	720.6 ± 0.4	714.1 ± 0.4	707.5 ± 0.4
21000 kPa	–	734.7 ± 0.4	727.8 ± 0.4	721.4 ± 0.4	715 ± 0.4	708.4 ± 0.4
21001 kPa	741.3 ± 0.4	–	–	–	–	–
22000 kPa	742 ± 0.4	735.4 ± 0.4	728.5 ± 0.4	722.2 ± 0.4	715.7 ± 0.4	709.2 ± 0.4
23000 kPa	742.6 ± 0.4	736 ± 0.4	729.2 ± 0.4	722.9 ± 0.4	716.5 ± 0.4	710 ± 0.4
23999 kPa	–	–	–	723.6 ± 0.4	–	–
24000 kPa	743.2 ± 0.4	736.7 ± 0.4	729.9 ± 0.4	–	717.3 ± 0.4	710.9 ± 0.4
25000 kPa	743.7 ± 0.4	737.3 ± 0.4	730.5 ± 0.4	724.3 ± 0.4	718 ± 0.4	711.6 ± 0.4

From the NIST ThermoML archive (doi:10.1021/je400055v)
